Calls of active or inactive are those of the source.
How the values were obtained:
[1] = HIV-1 Vif–A3G interaction blockers – biochemical, TR-FRET, GST-Vif 1-94, biotin-A3G peptide, dose response retest, primary screen (AID 1117319); format: functional;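 note: TR-FRET signal of purified GST-Vif binding a biotinylated A3G peptide; inhibitors lower the FRET signal by blocking Vif and A3G binding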
[2] = A549 cell cytotoxicity, dose response, cytotoxicity control, plate reader, cherry-pick, antagonist series (AID 743412); format: functional, cell-based
[3] = target: Luciferin 4-monooxygenase (Photinus pyralis, UniProt P08659); assay: Counter Screen for Luciferase-based Assay Positives. [Related pubchem assays: 620, 618, 411 ]
[4] = tested on: HEK293; assay: EBV LMP1 TES2 canonical NF-kB signalling blockers – cell-based, HEK293, luciferase, cherry-pick, dose response (AID 588343); format: functional; details: Homo sapiens
[5] = blockade of melanocortin 4 receptor signaling – cell-based, plate reader, cherry pick, counter-screen for LGR2 antagonist project, dose response (AID 743444); format: functional;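 note: transfected HEK 293 cells stimulated with alpha-MSH peptide; potency of inhibitors of the alpha-MSH evoked signal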
[6] = blockers of bursicon-stimulated LGR2 cAMP reporter – cell-based, HEK293, CRE-luciferase reporter, cherry pick, set 2, dose response (AID 743343); format: functional;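 note: transfected cells were stimulated with diluted bursicon conditioned medium after compound addition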
[7] = tested on: HT-1080; assay: HT1080 cell viability loss – fluorescence readout (AID 620); format: functional, cell-based; details: Homo sapiens
[8] = target: T1, Corticotropin-releasing factor receptor 2/Corticotropin-releasing factor-binding protein (Homo sapiens, UniProt P24387+Q13324); assay: activators of CRF receptor 2 with binding protein – uHTS hits, confirmation (AID 602473); format: functional; details: read-out: EC50_Mean
T1 sequence (Q13324 whole entry): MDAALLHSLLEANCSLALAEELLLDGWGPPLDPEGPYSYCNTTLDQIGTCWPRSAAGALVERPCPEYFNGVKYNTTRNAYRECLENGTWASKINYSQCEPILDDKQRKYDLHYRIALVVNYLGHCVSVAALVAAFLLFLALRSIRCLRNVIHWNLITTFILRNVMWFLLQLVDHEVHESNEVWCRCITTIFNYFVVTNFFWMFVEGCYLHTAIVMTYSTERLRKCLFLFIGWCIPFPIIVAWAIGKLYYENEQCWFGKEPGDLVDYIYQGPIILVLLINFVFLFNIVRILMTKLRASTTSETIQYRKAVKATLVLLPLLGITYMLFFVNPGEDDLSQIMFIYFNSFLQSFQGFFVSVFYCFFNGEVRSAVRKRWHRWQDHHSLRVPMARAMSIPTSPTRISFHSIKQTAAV
T1 sequence (P24387 whole entry): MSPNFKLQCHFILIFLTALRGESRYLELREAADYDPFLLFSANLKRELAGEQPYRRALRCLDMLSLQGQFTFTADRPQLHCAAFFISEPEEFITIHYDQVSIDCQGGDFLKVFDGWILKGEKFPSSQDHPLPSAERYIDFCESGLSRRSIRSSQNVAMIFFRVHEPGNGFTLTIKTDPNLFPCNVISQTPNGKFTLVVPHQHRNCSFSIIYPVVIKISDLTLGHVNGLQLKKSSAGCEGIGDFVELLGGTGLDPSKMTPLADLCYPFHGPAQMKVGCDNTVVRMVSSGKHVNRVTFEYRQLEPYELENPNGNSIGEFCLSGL

[9] = target: T1, Corticotropin-releasing factor receptor 2/Corticotropin-releasing factor-binding protein; assay: Dose Response confirmation of uHTS hits for small molecule antagonists of the CRF-binding protein and CRF-R2 receptor complex.; format: functional; details: read-out: IC50_Mean
[10] = target: T2, DNA repair protein RAD52 homolog (Homo sapiens, UniProt P43351); format: functional, biochemical
T2 sequence (P43351 whole entry): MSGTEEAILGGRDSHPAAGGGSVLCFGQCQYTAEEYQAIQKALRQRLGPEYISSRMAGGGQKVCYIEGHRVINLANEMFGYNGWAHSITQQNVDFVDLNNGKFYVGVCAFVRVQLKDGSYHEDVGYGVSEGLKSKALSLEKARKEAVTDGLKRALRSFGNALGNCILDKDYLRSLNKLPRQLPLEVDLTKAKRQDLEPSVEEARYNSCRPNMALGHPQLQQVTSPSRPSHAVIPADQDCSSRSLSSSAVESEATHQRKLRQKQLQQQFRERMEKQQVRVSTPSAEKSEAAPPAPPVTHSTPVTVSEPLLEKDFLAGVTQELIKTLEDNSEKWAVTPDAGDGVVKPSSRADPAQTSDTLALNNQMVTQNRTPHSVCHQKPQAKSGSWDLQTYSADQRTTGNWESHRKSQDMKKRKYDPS

[11] = target: T3, Disintegrin and metalloproteinase domain-containing protein 17 (Homo sapiens, UniProt P78536); assay: inhibition of ADAM17 substrate cleavage – biochemical, quenched FRET substrate, counter-screen for ADAM10 exosite inhibitor project, dose response (AID 743253)
[12] = potency of ADAM10 substrate cleavage blockers – biochemical, QFRET, dose response (AID 743254);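 note: ADAM10 enzyme with the DM2 quenched FRET peptide as substrate; EDANS fluorescence gain as the protease cuts the substrate; inhibitor potency against ADAM10 proteolytic activity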
[13] = target: T3, Disintegrin and metalloproteinase domain-containing protein 17; assay: exosite inhibitors of ADAM17, dose response, biochemical (AID 743260)
[14] = target: T4, RNA-editing ligase 1, mitochondrial (Trypanosoma brucei brucei, UniProt P86926); assay: inhibition of trypanosome RNA editing ligase – biochemical, fluorescence, Trypanosoma brucei, dose response (AID 1117295); format: functional
T4 sequence (P86926 whole entry): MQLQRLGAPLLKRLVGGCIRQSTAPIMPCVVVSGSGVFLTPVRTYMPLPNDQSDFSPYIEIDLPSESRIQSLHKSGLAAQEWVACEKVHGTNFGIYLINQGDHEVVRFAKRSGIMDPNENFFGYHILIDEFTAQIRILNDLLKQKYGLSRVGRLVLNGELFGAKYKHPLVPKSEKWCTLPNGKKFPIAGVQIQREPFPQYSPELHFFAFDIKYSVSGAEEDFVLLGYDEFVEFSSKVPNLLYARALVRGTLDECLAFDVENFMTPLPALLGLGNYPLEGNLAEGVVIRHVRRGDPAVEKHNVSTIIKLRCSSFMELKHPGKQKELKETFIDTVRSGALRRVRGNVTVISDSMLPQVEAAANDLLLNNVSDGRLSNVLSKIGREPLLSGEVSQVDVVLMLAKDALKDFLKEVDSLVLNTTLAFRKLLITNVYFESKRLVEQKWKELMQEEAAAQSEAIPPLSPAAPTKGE

[15] = cells; format: functional, cell-based
[16] = target: T5, Trace amine-associated receptor 1 (Homo sapiens, UniProt Q96RJ0); assay: Counterscreen for agonists of the human trace amine associated receptor 1 (hTAAR1): Fluorescence-based cell-based high throughput dose response assay to identify hTAAR1 agonist that also desensitize TAAR1 receptor response.; format: functional
T5 sequence (Q96RJ0 whole entry): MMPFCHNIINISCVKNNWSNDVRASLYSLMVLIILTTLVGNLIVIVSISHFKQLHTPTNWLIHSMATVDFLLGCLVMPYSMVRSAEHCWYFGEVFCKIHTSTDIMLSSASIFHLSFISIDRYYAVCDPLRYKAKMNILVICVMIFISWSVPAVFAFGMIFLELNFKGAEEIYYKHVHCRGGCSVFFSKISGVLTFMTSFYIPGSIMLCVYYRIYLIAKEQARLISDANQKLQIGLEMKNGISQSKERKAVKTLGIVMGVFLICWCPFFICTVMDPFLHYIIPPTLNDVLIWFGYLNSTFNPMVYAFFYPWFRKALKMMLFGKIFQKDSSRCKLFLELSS

[17] = cells; format: functional, cell-based; remark: listed apart in the source
[18] = target: T5, Trace amine-associated receptor 1; assay: Fluorescence-based cell-based high throughput dose response assay to identify agonists of the human trace amine associated receptor 1 (TAAR1).; format: functional
[19] = tested on: Streptococcus sp. 'group A'; assay: Streptococcus pyogenes SK(-)GAS viability under kanamycin – luminescence, BacTiterGlo, confirmation, counter-screen for streptokinase expression inhibitor project, dose response (AID 1900); format: functional, organism-based
[20] = tested on: Streptococcus; assay: GAS UMAA2166 growth inhibition – luminescence, BacTiterGlo, counter-screen for streptokinase expression inhibitor project, dose response (AID 1915); format: functional, organism-based;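 note: potency for reduction of bacterial viability or growth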
[21] = HGIII-sPLA2 enzyme inhibition potency – biochemical, QFRET, IC50, dose response (AID 743457);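 note: green fluorescence rise as the enzyme cleaves BODIPY PC-A2 in liposomes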
[22] = target: T6, Heat shock factor protein 1 (Mus musculus, UniProt P38532); assay: enhancement of HSF1-driven luciferase signal – cell-based, NIH3T3, luminescence, dose retest, confirmation (AID 435004); format: functional;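 note: stress induced by proteasome inhibitor MG132 added 30 min after compound; luciferase reporter driven by HSF1 response element in NIH3T3 cells; actives raise luminescence as potentiators of the MG132 stress response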
T6 sequence (P38532 whole entry): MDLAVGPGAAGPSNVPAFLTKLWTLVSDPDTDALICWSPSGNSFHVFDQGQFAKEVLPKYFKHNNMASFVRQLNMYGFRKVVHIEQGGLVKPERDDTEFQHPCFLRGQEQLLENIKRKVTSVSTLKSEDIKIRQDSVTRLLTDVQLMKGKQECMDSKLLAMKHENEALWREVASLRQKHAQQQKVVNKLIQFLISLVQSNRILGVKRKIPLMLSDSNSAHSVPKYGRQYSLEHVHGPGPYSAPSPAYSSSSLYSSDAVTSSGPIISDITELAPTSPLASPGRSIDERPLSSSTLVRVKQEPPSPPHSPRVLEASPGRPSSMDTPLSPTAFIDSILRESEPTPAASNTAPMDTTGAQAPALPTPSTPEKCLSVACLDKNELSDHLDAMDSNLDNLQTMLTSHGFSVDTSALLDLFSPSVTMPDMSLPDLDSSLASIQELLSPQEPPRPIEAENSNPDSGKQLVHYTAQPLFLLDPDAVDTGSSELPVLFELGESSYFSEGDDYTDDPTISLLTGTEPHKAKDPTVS

[23] = target: Paired box protein Pax-8 (Homo sapiens, UniProt Q06710); assay: PAX8 transcriptional activity inhibition in RMG-I – RMG-I cells, luciferase, cherry-pick, dose response (AID 687027); format: functional, cell-based;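 note: luciferase reporter driven by Pax8 target thyroperoxidase promoter measured by SteadyGlo luminescence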
[24] = IGROV1 cell killing – plate reader, dry powder samples, PAX8 inhibitor project, dose response (AID 743043); format: functional, cell-based; details: IGROV-1
[25] = target: Cytochrome P450 2D6 (Homo sapiens, UniProt P10635);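 note: CYP2D6 member of a cytochrome P450 panel assay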
[26] = target: T7, Cytochrome P450 1A2 (Homo sapiens, UniProt P05177);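 note: PubChem cytochrome P450 panel assay, CYP1A2 panel member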
T7 sequence (P05177 whole entry): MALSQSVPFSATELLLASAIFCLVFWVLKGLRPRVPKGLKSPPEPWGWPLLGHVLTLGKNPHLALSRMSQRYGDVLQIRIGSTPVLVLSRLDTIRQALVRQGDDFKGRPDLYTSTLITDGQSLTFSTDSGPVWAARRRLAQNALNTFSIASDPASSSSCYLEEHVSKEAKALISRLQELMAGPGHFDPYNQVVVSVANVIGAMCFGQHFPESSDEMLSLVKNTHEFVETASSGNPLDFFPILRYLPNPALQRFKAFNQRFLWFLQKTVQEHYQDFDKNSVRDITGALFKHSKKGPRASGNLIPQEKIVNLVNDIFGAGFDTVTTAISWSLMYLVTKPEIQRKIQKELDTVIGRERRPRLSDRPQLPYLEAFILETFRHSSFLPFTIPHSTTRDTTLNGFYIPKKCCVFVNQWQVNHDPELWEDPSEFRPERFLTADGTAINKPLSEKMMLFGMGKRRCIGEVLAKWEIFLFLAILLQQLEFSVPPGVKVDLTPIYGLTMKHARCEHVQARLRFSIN

[27] = target: Cytochrome P450 3A4 (Homo sapiens, UniProt P08684);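 note: CYP3A4 tested as one member of a cytochrome P450 panel screen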
Chain of Cytochrome P450 3A4 (P08684 whole entry): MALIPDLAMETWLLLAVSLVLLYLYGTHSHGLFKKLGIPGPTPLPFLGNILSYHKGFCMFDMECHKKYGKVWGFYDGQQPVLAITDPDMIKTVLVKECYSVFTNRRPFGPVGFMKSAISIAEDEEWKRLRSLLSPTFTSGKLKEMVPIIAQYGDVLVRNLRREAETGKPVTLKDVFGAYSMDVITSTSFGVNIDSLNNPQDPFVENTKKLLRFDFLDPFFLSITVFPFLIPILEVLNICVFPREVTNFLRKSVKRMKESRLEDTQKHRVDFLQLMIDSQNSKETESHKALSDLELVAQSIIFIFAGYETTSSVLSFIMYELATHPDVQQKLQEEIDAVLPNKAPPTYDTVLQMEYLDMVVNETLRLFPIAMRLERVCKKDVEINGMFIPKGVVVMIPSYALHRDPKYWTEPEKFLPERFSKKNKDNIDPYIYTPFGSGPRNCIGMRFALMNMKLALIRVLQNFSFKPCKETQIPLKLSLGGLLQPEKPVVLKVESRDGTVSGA

T3 sequence (P78536 whole entry, the tested form may be a part): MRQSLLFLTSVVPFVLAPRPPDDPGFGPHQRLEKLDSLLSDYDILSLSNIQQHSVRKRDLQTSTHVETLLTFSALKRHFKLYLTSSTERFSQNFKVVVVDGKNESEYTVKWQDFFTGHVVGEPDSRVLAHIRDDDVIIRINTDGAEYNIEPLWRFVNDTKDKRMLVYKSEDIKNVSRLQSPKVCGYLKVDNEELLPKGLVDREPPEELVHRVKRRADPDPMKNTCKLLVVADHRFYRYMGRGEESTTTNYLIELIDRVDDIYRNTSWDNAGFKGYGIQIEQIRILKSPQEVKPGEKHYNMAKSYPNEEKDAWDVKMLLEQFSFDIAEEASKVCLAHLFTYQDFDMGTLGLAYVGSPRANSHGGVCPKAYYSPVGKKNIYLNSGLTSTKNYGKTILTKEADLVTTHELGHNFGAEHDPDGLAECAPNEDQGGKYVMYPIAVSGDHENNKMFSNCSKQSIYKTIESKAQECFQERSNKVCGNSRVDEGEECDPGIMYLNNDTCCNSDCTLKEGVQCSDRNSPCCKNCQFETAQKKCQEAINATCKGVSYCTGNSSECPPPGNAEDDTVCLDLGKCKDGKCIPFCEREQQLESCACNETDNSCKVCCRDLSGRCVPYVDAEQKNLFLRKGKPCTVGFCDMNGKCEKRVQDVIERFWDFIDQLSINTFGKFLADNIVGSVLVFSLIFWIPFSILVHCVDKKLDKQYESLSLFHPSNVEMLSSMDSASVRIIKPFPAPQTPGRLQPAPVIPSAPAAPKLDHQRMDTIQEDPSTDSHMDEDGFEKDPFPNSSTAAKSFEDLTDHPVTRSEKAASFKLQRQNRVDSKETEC
Chain of Luciferin 4-monooxygenase (P08659 whole entry): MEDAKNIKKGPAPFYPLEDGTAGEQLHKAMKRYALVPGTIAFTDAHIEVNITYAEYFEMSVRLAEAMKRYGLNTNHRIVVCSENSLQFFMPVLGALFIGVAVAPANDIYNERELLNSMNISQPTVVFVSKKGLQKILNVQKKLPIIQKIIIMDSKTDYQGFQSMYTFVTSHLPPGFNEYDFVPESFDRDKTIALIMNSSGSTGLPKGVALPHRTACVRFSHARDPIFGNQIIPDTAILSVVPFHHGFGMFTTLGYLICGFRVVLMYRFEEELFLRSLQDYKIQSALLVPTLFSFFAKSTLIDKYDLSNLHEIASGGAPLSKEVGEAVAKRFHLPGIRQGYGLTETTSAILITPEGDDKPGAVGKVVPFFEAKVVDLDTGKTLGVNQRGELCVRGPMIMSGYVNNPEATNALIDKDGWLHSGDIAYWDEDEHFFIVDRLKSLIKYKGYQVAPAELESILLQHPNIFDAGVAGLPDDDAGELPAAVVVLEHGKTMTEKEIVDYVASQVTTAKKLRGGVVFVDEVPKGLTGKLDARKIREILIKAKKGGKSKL
Chain of Cytochrome P450 2D6 (P10635 whole entry): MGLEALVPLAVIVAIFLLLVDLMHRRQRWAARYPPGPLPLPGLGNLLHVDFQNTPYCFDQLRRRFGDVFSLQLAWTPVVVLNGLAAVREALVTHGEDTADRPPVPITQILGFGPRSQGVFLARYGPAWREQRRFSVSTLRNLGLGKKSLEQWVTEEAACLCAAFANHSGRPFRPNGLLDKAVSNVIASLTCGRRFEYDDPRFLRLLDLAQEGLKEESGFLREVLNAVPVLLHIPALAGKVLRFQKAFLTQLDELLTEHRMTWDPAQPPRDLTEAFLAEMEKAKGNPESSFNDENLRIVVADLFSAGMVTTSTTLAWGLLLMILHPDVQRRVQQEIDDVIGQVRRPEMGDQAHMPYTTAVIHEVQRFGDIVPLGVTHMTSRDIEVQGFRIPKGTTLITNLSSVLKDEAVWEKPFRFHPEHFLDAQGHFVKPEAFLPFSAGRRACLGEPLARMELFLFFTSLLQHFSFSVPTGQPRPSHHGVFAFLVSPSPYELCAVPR
Chain of Paired box protein Pax-8 (Q06710 whole entry): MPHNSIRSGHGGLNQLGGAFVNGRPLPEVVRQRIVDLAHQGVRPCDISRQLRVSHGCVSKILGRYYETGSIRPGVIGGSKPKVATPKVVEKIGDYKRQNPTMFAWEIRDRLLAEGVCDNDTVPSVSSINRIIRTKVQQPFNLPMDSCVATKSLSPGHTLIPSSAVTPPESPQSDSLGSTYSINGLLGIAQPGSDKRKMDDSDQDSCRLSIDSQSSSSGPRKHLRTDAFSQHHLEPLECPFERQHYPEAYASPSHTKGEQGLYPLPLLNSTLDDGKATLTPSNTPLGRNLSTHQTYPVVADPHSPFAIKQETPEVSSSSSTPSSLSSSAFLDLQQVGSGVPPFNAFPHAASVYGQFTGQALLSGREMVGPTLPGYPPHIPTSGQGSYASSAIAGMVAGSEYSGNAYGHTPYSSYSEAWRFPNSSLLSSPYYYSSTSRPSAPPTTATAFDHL

Cc1cc(NC(=O)CSc2nnc(-c3ccoc3C)n2N)no1
IC50 [1]: > 100 µM (active)

COCCn1c(C)cc(C(=O)CSc2nnc3ccccn23)c1C
AC50 [2]: > 52 µM (inactive)
EC50 [3]: < 0.2 µM (active)
AC50 [4]: 2.88 µM (active)
AC50 [5]: 3.66 µM (active)
AC50 [6]: 4.03 µM (active)
EC50 [7]: > 50 µM (not active)

CC(=O)c1cccc(Nc2cc(C)nc3c(C)cccc23)c1
EC50 [8]: > 53 µM (inactive)
IC50 [9]: > 47.1 µM (inactive)
AC50 [10]: 21.4 µM (active)

Cc1ccccc1NC(C)C(=O)N/N=C/c1ccccc1OCc1cccc(Br)c1 (centres undefined)
IC50 [11]: > 69.5 µM (inactive)
IC50 [12]: > 69.5 µM (inactive)
IC50 [13]: > 69.5 µM (inactive)

COc1cc(CN(CCN(C)C)Cc2ccccc2)ccc1OCc1ccccc1
IC50 [14]: > 96.6 µM (inactive)

O=C(Nc1nccs1)c1[nH]cnc1C(=O)N1CCc2ccccc2C1
IC50 [15]: > 29.9 µM (inactive)
IC50 [16]: 4.95 µM (active)
EC50 [17]: > 29.9 µM (inactive)
EC50 [18]: 0.858 µM (active)

O=C(NCc1ccc(Cl)cc1)c1ccccc1Oc1ccccc1
IC50 [1]: > 100 µM (active)

Cc1cc(C)c2nc(NNC(=O)c3ccc(S(=O)(=O)N4CCCCC4)cc3)sc2c1
EC50 [19]: 1.92 µM (active)
EC50 [20]: 4.91 µM (active)
IC50 [21]: 19 µM (inactive)

Cc1ccsc1/C=N\Nc1cnnc(O)c1Cl
IC50 [15]: > 29.9 µM (inactive)
IC50 [16]: 8.29 µM (active)
EC50 [17]: > 29.9 µM (inactive)
EC50 [18]: 2.16 µM (active)

CCN(CC)c1ccc(C=NNC(=O)c2cc(-c3ccc(C)c(C)c3)[nH]n2)c(O)c1
IC50 [21]: > 122 µM (inactive)

C=CCNC(=S)NNC(=O)c1cccn(Cc2ccc(Cl)c(Cl)c2)c1=O
IC50 [21]: > 122 µM (inactive)
EC50 [22]: > 260 µM (inactive)

Cc1ccc(S(=O)(=O)Nc2ccc3c(c2)C(=O)N([C@H](C)CO)C[C@@H](C)[C@H](CN(C)S(=O)(=O)c2ccc(C)cc2)OCCCC[C@H](C)O3)cc1
AC50 [23]: 9.07 µM (active)
AC50 [24]: 51.4 µM (active)

COc1cccc(CNc2nc(NCc3ccccc3)nc3ccsc23)c1
IC50 [14]: > 96.6 µM (inactive)

O=C(N[C@@H](Cc1cccnc1)C(=O)N1CCC[C@H]1C(=O)NCCc1ccccc1Cl)c1cccs1
IC50 [15]: > 29.9 µM (inactive)
IC50 [16]: 14.4 µM (inactive)
EC50 [17]: > 29.9 µM (inactive)
EC50 [18]: 8.12 µM (active)

S=C(Nc1cccc(Cl)c1)NC1CCCCC1
AC50 [25]: 44.7 µM (inconclusive)
AC50 [26]: 17.8 µM (inconclusive)
AC50 [27]: 15.8 µM (inconclusive)
IC50 [1]: > 100 µM (active)

CC(=O)c1ccc(NC(=O)c2noc3c2CCC3)cc1
AC50 [2]: > 52 µM (inactive)
AC50 [4]: 1.92 µM (active)
AC50 [5]: 3.68 µM (active)
AC50 [6]: 2.77 µM (active)

Reference: ChEMBL document CHEMBL1201862, “PubChem BioAssay data set” (2004)
